# pIC50: −log10 of the molar value.
# How the values were obtained:
# [1] = Inhibition of protein phosphatase 1 (PP1) was determined by standard phosphorylase inhibition assay; design: species or system Oryctolagus cuniculus
# [2] = Inhibition of protein phosphatase 2A (PP2A) was determined by standard phosphorylase inhibition assay; design: species or system Oryctolagus cuniculus
pIC50 [1],pIC50 [2],SMILES
3.89,4.00,CC[C@@H](C)CC[C@H](O)[C@H](C)C(=O)C[C@@H](O)[C@H](OC)[C@H](OC(=O)C[C@@H](O)C1=C(C)C(=O)OC1=O)C(C)C
5.32,5.48,CO[C@@H](CO)[C@H](OC(=O)C[C@@H](O)C1=C(C)C(=O)OC1=O)C(C)C

SMILES,pIC50 [1],pIC50 [2]
CO[C@H]([C@H](O)CC(=O)[C@@H](C)[C@@H](O)CC[C@@H](C)[C@@H]1O[C@]2(CC[C@@H](C)[C@H](CC[C@H](C)C(C)=O)O2)CC[C@@H]1C)[C@H](OC(=O)C[C@@H](O)C1=C(C)C(=O)OC1=O)C(C)C [TAUTOMYCIN],6.72,6.05

# — ChEMBL document CHEMBL1136436, “A new model of the tautomycin-PP1 complex that is not analogous to the corresponding okadaic acid structure” (Bioorg Med Chem Lett, 2003)
